Experimental data reported in patent publication US20250282820A1, “PEPTIDE COMPLEX HAVING TRKB BINDING ACTIVITY” (PEPTIDREAM INC, priority 2022, published 2025).
*1 amine or outer side, *2 acyl side, *3 side chain or, on linkers, in order; H or OH if unused. Where a SMILES comes first, the peptide text is derived from it. Bridges are numbered along the chain shown (N, C = ends). Roman numbers before positions name the chains, in order. [ ]: non-standard residue; d: D form. PEG8 = NCCOCCOCCOCCOCCOCCOCCOCCOCCC(=O)O; 3Pal = N[C@@H](Cc1cccnc1)C(=O)O; X2 = O=C(CCOCCC(=O)[*:2])[*:1]; PEG2 = NCCOCCOCCC(=O)O

Experiments:
Assay type in all cases: cell-based
[1] = molecular target: TrkB (Homo sapiens, UniProt Q16620); assay: PathHunter eXpress TrkB Functional Assay (phosphorylation of TrkB); settings: maximum signal induced by BDNF = 100%; stimulation for 3 hours
Procedure: To evaluate the TrkB activation potency of the TrkB agonist peptide of the present invention, the phosphorylation of TrkB was examined. The PathHunter (registered trademark) eXpress TrkB Functional Assay kit (DiscoverX; cells, 96-well plate, medium, and detection reagents included) was used and the evaluation was performed according to the attached protocols. The frozen cells were thawed and suspended in the medium, then seeded into a 96-well plate at 10,000 cells per well and incubated for 48 hours. Thereafter, Recombinant Human BDNF Protein (R&D Systems) or a peptide was added, and after stimulation for 3 hours, a detection reagent was added. The reaction was performed while protected from the light at room temperature for 60 minutes, and luminescent signals were measured using a SpectraMax Paradigm Multi-Mode Microplate Reader (Molecular Devices). The obtained signals were analyzed with GraphPad Prism, and the activity (%) was calculated with the maximum value of the signals induced by BDNF as 100% and a signal with no stimulation as 0%.
The BDNF was evaluated at 8 points (0.006 nM to 100 nM) from 100 nM using 4-fold dilutions. The peptide was evaluated in the measurement ranges A to C shown below. • Measurement range A=6 points from 100 nM using 5-fold dilutions (0.032 nM to 100 nM) • Measurement range B=8 points from 100 nM using 4-fold dilutions (0.006104 nM to 100 nM) • Measurement range C=4 points from 10 nM using 10-fold dilutions (0.01 nM to 10 nM)

[2] = molecular target: T1, TrkB (CellSensor TrkB-NFAT-bla CHO-K1 Cell) (Homo sapiens, UniProt Q16620); assay: pERK1/2 AlphaLISA assay (phosphorylation of ERK) for TrkB agonist activity; settings: class = peptide concentration giving 50% or more activity; BDNF maximum signal = 100%, no stimulation = 0%; 15 minutes of stimulation
T1 construct: host or cells: CHO-K1 (CellSensor TrkB-NFAT-bla CHO-K1)
Procedure: To evaluate the TrkB activation potency of the TrkB agonist peptide of the present invention, the phosphorylation of ERK was examined. CellSensor (registered trademark) TrkB-NFAT-bla CHO-K1 Cell (Invitrogen) was cultured in DMEM, high glucose, GlutaMAX (registered trademark) Supplement, and pyruvate (Thermo), comprising 10% FBS (Thermo) and 1× Non-essential amino acids (Thermo), 25 mM HEPES (Thermo), 50 ug/mL Gentamicin, 5 ug/mL Blasticidin (Thermo), and 200 ug/mL Zeocin (Thermo). After the cells were detached using Accutase (Innovative Cell Technologies), they were seeded into a 96-well plate for adherent cultures at 12,500 cells per well and cultured overnight. The next day, for starvation, the culture solution above was replaced with a nutrient starvation medium comprising 0.1% BSA (Sigma), wherein FBS, Blasticidin, and Zeocin were removed from the culture medium, and culturing was performed for 4 hours. Thereafter, Recombinant Human BDNF Protein (R&D Systems) or a peptide was added, and after 15 minutes of stimulation, cells were lysed in the Lysis Buffer provided with the AlphaLISA SureFire Ultra p-Erk1/2 (Thr202/Tyr204) assay kit (PerkinElmer). The assay was performed according to the kit protocol. The signals were detected using a SpectraMax Paradigm Multi-Mode Microplate Reader (Molecular Devices). The obtained signals were analyzed with GraphPad Prism, and the activity (%) was calculated with the maximum value of the signals induced by BDNF as 100% and a signal with no stimulation as 0%. The peptide with 50% or more activity when 1 nM of the peptide was added was evaluated as A, and the peptide with 50% or more activity when 10 nM of the peptide was added was evaluated as B.
The BDNF was evaluated at 8 points (0.0006 nM to 10 nM) from 10 nM using 4-fold dilutions.
(§1) For dimer structures Nos. 1 to 3, the peptide was evaluated at 1 nM, 10 nM, and 100 nM, and, for other dimer structure numbers, the peptide was evaluated at 0.1 nM, 1 nM, and 10 nM. When creating the concentration dependence curve, the BDNF and the peptides were evaluated at 8 points (0.006 nM to 100 nM) from 100 nM using 4-fold dilutions.

[3] = molecular target: T1, TrkB (CellSensor TrkB-NFAT-bla CHO-K1 Cell); assay: NFAT transcriptional reporter assay for TrkB agonist activity; settings: class = peptide concentration giving 50% or more activity; BDNF maximum signal = 100%, no stimulation = 0%; 5 hours culture
Procedure: To evaluate the TrkB activation potency of the TrkB agonist peptide of the present invention, transcriptional activity was examined using transcriptional reporters. The CellSensor (registered trademark) TrkB-NFAT-bla CHO-K1 Cell (Invitrogen) used in the AlphaLISA assay was cultured in the medium above. After the cells were detached using Accutase (Innovative Cell Technologies), the cells were suspended in an assay medium, wherein Blasticidin and Zeocin were removed, then seeded into a 96-well plate for adherent cultures at 12,500 cells per well and cultured overnight. Then, BDNF or a peptide was added thereto, and the cells were further cultured in a CO2 incubator for 5 hours. After the 96-well plate was removed from the incubator and brought to room temperature, a detection reagent (LiveBLAzer (registered trademark)-FRET B/G (CCF4-AM) Substrate Mixture) was added while protected from the light, and the 96-well plate was incubated while protected from the light in a moisture box with a lid for 2 hours. For signal detection, a EnVision 2104 Multilabel Plate Reader (PerkinElmer) was used, and the ratio of fluorescence emission value (460 nm/535 nm) was calculated. The obtained numerical values were analyzed with GraphPad Prism, and the activity (%) was calculated with the maximum value of the signals induced by BDNF as 100% and a signal with no stimulation as 0%. The peptide with 50% or more activity when 1 nM of the peptide was added was evaluated as A, the peptide with 50% or more activity when 10 nM of the peptide was added was evaluated as B, and the peptide with 50% or more activity when 100 nM of the peptide was added was evaluated as C. Those that were not evaluated were listed as not tested.
The BDNF was evaluated at 7 points (0.0024 nM to 10 nM) from 10 nM using 4-fold dilutions.
as §1, with “at […]” for “at 8”, “[…]” for “from 100”

T1 sequence (Q16620 32-822): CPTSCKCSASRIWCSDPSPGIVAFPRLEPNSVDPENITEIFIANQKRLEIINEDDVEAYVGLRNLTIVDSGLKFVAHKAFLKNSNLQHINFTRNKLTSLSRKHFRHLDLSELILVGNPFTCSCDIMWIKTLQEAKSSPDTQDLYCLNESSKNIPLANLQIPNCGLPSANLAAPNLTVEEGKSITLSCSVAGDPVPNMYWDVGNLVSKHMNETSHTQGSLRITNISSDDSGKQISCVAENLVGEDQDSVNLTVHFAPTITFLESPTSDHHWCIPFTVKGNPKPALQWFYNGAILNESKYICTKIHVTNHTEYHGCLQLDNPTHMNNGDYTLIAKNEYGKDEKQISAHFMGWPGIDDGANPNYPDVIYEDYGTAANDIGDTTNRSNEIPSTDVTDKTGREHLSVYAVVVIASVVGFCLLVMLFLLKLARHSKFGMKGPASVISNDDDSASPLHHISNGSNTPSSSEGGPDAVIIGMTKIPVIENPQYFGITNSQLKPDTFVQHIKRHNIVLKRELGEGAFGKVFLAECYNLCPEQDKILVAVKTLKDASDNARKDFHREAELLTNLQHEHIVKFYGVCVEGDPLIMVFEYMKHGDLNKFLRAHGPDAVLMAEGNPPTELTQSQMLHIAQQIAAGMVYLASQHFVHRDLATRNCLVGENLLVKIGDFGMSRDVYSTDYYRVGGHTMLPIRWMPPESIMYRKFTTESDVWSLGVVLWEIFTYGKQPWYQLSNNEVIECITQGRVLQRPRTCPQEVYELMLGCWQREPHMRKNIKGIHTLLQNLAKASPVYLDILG
Sequence of TrkB (Q16620 32-822): as above

SMILES: CC(C)C[C@@H]1NC(=O)[C@H](Cc2ccccc2)NC(=O)CSC[C@@H](C(=O)NCC(=O)NCCOCCOCCOCCOCCOCCOCCOCCOCCC(=O)NCCCC[C@H](NC(=O)CCOCCOCCOCCOCCOCCOCCOCCOCCNC(=O)CNC(=O)[C@@H]2CSCC(=O)N[C@@H](Cc3ccccc3)C(=O)N[C@@H](CC(C)C)C(=O)N3CCC[C@H]3C(=O)N[C@@H](Cc3ccc(O)cc3)C(=O)N[C@@H](Cc3cccnc3)C(=O)N[C@@H](Cc3c[nH]c4ccccc34)C(=O)N3CCC[C@H]3C(=O)N[C@@H]([C@@H](C)O)C(=O)N[C@@H](Cc3ccc(O)cc3)C(=O)N[C@@H](CO)C(=O)N[C@@H](CCC(=O)O)C(=O)N[C@@H](Cc3cccnc3)C(=O)N[C@@H](C(C)C)C(=O)N[C@@H](CCC(=O)O)C(=O)N2)C(N)=O)NC(=O)[C@H](CCC(=O)O)NC(=O)[C@H](C(C)C)NC(=O)[C@H](Cc2cccnc2)NC(=O)[C@H](CCC(=O)O)NC(=O)[C@H](CO)NC(=O)[C@H](Cc2ccc(O)cc2)NC(=O)[C@H]([C@@H](C)O)NC(=O)[C@@H]2CCCN2C(=O)[C@H](Cc2c[nH]c3ccccc23)NC(=O)[C@H](Cc2cccnc2)NC(=O)[C@H](Cc2ccc(O)cc2)NC(=O)[C@@H]2CCCN2C1=O [compound 14] (I: {CH2CO}-FLPY[3Pal]WPTYSE[3Pal]VECG[PEG8]K-NH2 / II: {CH2CO}-FLPY[3Pal]WPTYSE[3Pal]VECG[PEG8]; amide I:18-II:C (inferred); thioether I:N-I:15, II:N-II:15 (inferred))
- Emax [1]: 86%
- pERK (aLISA) Assay Results [2]: A (The peptide with 50% or more activity when 1 nM of the peptide was added was evaluated as A)
- NFAT Assay Results [3]: A (The peptide with 50% or more activity when 1 nM of the peptide was added was evaluated as A)

SMILES: CC(C)[C@@H]1NC(=O)[C@H](Cc2cccnc2)NC(=O)[C@H](CCC(=O)O)NC(=O)[C@H](CO)NC(=O)[C@H](Cc2ccc(O)cc2)NC(=O)[C@H]([C@@H](C)O)NC(=O)[C@@H]2CCCN2C(=O)[C@H](Cc2c[nH]c3ccccc23)NC(=O)[C@H](Cc2cccnc2)NC(=O)[C@H](Cc2ccc(O)cc2)NC(=O)[C@@H]2CCCN2C(=O)[C@H](CO)NC(=O)[C@H](Cc2ccccc2)NC(=O)CSC[C@@H](C(=O)NCC(=O)NCCOCCOCCC(=O)N[C@@H](CCCCNC(=O)CCOCCC(=O)NCCCC[C@H](NC(=O)CCOCCOCCNC(=O)CNC(=O)[C@@H]2CSCC(=O)N[C@@H](Cc3ccccc3)C(=O)N[C@@H](CO)C(=O)N3CCC[C@H]3C(=O)N[C@@H](Cc3ccc(O)cc3)C(=O)N[C@@H](Cc3cccnc3)C(=O)N[C@@H](Cc3c[nH]c4ccccc34)C(=O)N3CCC[C@H]3C(=O)N[C@@H]([C@@H](C)O)C(=O)N[C@@H](Cc3ccc(O)cc3)C(=O)N[C@@H](CO)C(=O)N[C@@H](CCC(=O)O)C(=O)N[C@@H](Cc3cccnc3)C(=O)N[C@@H](C(C)C)C(=O)N[C@@H](CCC(=O)O)C(=O)N2)C(N)=O)C(N)=O)NC(=O)[C@H](CCC(=O)O)NC1=O [compound 51] (I: {CH2CO}-FSPY[3Pal]WPTYSE[3Pal]VECG[PEG2]K-NH2 / II: {CH2CO}-FSPY[3Pal]WPTYSE[3Pal]VECG[PEG2]K-NH2; linker I:18-II:18 via X2; thioether I:N-I:15, II:N-II:15)
- Emax [1]: 106%
- pERK (aLISA) Assay Results [2]: A (The peptide with 50% or more activity when 1 nM of the peptide was added was evaluated as A)
- NFAT Assay Results [3]: A (The peptide with 50% or more activity when 1 nM of the peptide was added was evaluated as A)
